{"source": "ChEMBL document CHEMBL1201861", "about": "“Genomics of Drug Sensitity in Cancer screening data, Wellcome Trust Sanger Institute”", "test_in_all_cases": "cells", "type_in_all_cases": "functional, cell-based, Homo sapiens", "key": {"ESS-1": {"test_system": "ESS-1", "conditions": "Homo sapiens, ESS-1", "description": "SANGER: Inhibition of human ESS-1 cell growth in a cell viability assay."}, "UMC-11": {"test_system": "UMC-11", "conditions": "Homo sapiens, UMC-11", "description": "SANGER: Inhibition of human UMC-11 cell growth in a cell viability assay."}, "SAOS-2": {"test_system": "SAOS-2", "conditions": "Homo sapiens, SAOS-2", "description": "SANGER: Inhibition of human Saos-2 cell growth in a cell viability assay."}, "RVH-421": {"test_system": "RVH-421", "conditions": "Homo sapiens, RVH-421", "description": "SANGER: Inhibition of human RVH-421 cell growth in a cell viability assay."}, "HT55": {"test_system": "HT55", "conditions": "Homo sapiens, HT55", "description": "SANGER: Inhibition of human HT55 cell growth in a cell viability assay."}, "PFSK-1": {"test_system": "PFSK-1", "conditions": "Homo sapiens, PFSK-1", "description": "SANGER: Inhibition of human PFSK-1 cell growth in a cell viability assay."}, "HuO9": {"test_system": "HuO9", "conditions": "Homo sapiens, HuO9", "description": "SANGER: Inhibition of human HuO9 cell growth in a cell viability assay."}, "KP-N-YN": {"test_system": "KP-N-YN", "conditions": "Homo sapiens, KP-N-YN", "description": "SANGER: Inhibition of human KP-N-YN cell growth in a cell viability assay."}, "NCI-H2122": {"test_system": "NCI-H2122", "conditions": "Homo sapiens, NCI-H2122", "description": "SANGER: Inhibition of human NCI-H2122 cell growth in a cell viability assay."}, "PA-1": {"test_system": "PA-1", "conditions": "Homo sapiens, PA-1", "description": "SANGER: Inhibition of human PA-1 cell growth in a cell viability assay."}, "HT-1376": {"test_system": "HT-1376", "conditions": "Homo sapiens, HT-1376", "description": "SANGER: Inhibition of human HT-1376 cell growth in a cell viability assay."}, "BHT-101": {"test_system": "BHT-101", "conditions": "Homo sapiens, BHT-101", "description": "SANGER: Inhibition of human BHT-101 cell growth in a cell viability assay."}, "SW1463": {"test_system": "SW1463", "conditions": "Homo sapiens, SW1463", "description": "SANGER: Inhibition of human SW1463 cell growth in a cell viability assay."}, "NB7": {"test_system": "NB7", "conditions": "Homo sapiens, NB7", "description": "SANGER: Inhibition of human NB7 cell growth in a cell viability assay."}, "BFTC-905": {"test_system": "BFTC-905", "conditions": "Homo sapiens, BFTC-905", "description": "SANGER: Inhibition of human BFTC-905 cell growth in a cell viability assay."}, "CAL-51": {"test_system": "CAL-51", "conditions": "Homo sapiens, CAL-51", "description": "SANGER: Inhibition of human CAL-51 cell growth in a cell viability assay."}, "KYSE-150 cell line": {"test_system": "KYSE-150 cell line", "conditions": "Homo sapiens, KYSE-150", "description": "SANGER: Inhibition of human KYSE-150 cell growth in a cell viability assay."}, "HOP-92": {"test_system": "HOP-92", "conditions": "Homo sapiens, HOP-92", "description": "SANGER: Inhibition of human HOP-92 cell growth in a cell viability assay."}, "MG-63": {"test_system": "MG-63", "conditions": "Homo sapiens, MG-63", "description": "SANGER: Inhibition of human MG-63 cell growth in a cell viability assay."}, "H-EMC-SS": {"test_system": "H-EMC-SS", "conditions": "Homo sapiens, H-EMC-SS", "description": "SANGER: Inhibition of human H-EMC-SS cell growth in a cell viability assay."}, "HCT-15": {"test_system": "HCT-15", "conditions": "Homo sapiens, HCT-15", "description": "SANGER: Inhibition of human HCT-15 cell growth in a cell viability assay."}, "CP50-MEL-B": {"test_system": "CP50-MEL-B", "conditions": "Homo sapiens, CP50-MEL-B", "description": "SANGER: Inhibition of human CP50-MEL-B cell growth in a cell viability assay."}, "JEG-3": {"test_system": "JEG-3", "conditions": "Homo sapiens, JEG-3", "description": "SANGER: Inhibition of human JEG-3 cell growth in a cell viability assay."}, "CAL-54": {"test_system": "CAL-54", "conditions": "Homo sapiens, CAL-54", "description": "SANGER: Inhibition of human CAL-54 cell growth in a cell viability assay."}, "YKG-1": {"test_system": "YKG-1", "conditions": "Homo sapiens, YKG-1", "description": "SANGER: Inhibition of human YKG-1 cell growth in a cell viability assay."}, "SW1710": {"test_system": "SW1710", "conditions": "Homo sapiens, SW1710", "description": "SANGER: Inhibition of human SW1710 cell growth in a cell viability assay."}, "SK-MES-1": {"test_system": "SK-MES-1", "conditions": "Homo sapiens, SK-MES-1", "description": "SANGER: Inhibition of human SK-MES-1 cell growth in a cell viability assay."}, "SNU-449": {"test_system": "SNU-449", "conditions": "Homo sapiens, SNU-449", "description": "SANGER: Inhibition of human SNU-449 cell growth in a cell viability assay."}, "NCI-H1993": {"test_system": "NCI-H1993", "conditions": "Homo sapiens, NCI-H1993", "description": "SANGER: Inhibition of human NCI-H1993 cell growth in a cell viability assay."}, "D-423MG": {"test_system": "D-423MG", "conditions": "Homo sapiens, D-423MG", "description": "SANGER: Inhibition of human D-423MG cell growth in a cell viability assay."}, "HCC1806": {"test_system": "HCC1806", "conditions": "Homo sapiens, HCC1806", "description": "SANGER: Inhibition of human HCC1806 cell growth in a cell viability assay."}, "FTC-133": {"test_system": "FTC-133", "conditions": "Homo sapiens, FTC-133"}, "SF-295": {"test_system": "SF-295", "conditions": "Homo sapiens, SF-295", "description": "SANGER: Inhibition of human SF295 cell growth in a cell viability assay."}, "AN3-CA": {"test_system": "AN3-CA", "conditions": "Homo sapiens, AN3-CA", "description": "SANGER: Inhibition of human AN3-CA cell growth in a cell viability assay."}, "HCT-116": {"test_system": "HCT-116", "conditions": "Homo sapiens, HCT-116", "description": "SANGER: Inhibition of human HCT-116 cell growth in a cell viability assay."}}}
{"smiles": "CC(C)CCN1c2nc(Nc3cc(F)c(O)c(F)c3)ncc2N(C)C(=O)C1C", "note": "(stereo not given)", "values": [{"measurement": "IC50", "setting": "ESS-1", "result": "> 5000", "unit": "nM"}, {"measurement": "IC50", "setting": "UMC-11", "result": "> 5000", "unit": "nM"}, {"measurement": "IC50", "setting": "SAOS-2", "result": "> 5000", "unit": "nM"}, {"measurement": "IC50", "setting": "RVH-421", "result": "> 5000", "unit": "nM"}, {"measurement": "IC50", "setting": "HT55", "result": "> 5000", "unit": "nM"}, {"measurement": "IC50", "setting": "PFSK-1", "result": "> 5000", "unit": "nM"}, {"measurement": "IC50", "setting": "HuO9", "result": 2370, "unit": "nM"}, {"measurement": "IC50", "setting": "KP-N-YN", "result": "> 5000", "unit": "nM"}, {"measurement": "IC50", "setting": "NCI-H2122", "result": "> 5000", "unit": "nM"}, {"measurement": "IC50", "setting": "PA-1", "result": "> 5000", "unit": "nM"}, {"measurement": "IC50", "setting": "HT-1376", "result": 4.23, "unit": "µM"}, {"measurement": "IC50", "setting": "BHT-101", "result": 4110, "unit": "nM"}, {"measurement": "IC50", "setting": "SW1463", "result": "> 5000", "unit": "nM"}, {"measurement": "IC50", "setting": "NB7", "result": "> 5000", "unit": "nM"}, {"measurement": "IC50", "setting": "BFTC-905", "result": 1560, "unit": "nM"}, {"measurement": "IC50", "setting": "CAL-51", "result": 4.87, "unit": "µM"}, {"measurement": "IC50", "setting": "KYSE-150 cell line", "result": 2150, "unit": "nM"}, {"measurement": "IC50", "setting": "HOP-92", "result": "> 5000", "unit": "nM"}, {"measurement": "IC50", "setting": "MG-63", "result": "> 5000", "unit": "nM"}, {"measurement": "IC50", "setting": "H-EMC-SS", "result": "> 5000", "unit": "nM"}, {"measurement": "IC50", "setting": "HCT-15", "result": "> 5000", "unit": "nM"}, {"measurement": "IC50", "setting": "CP50-MEL-B", "result": "> 5000", "unit": "nM"}, {"measurement": "IC50", "setting": "JEG-3", "result": 3.69, "unit": "µM"}, {"measurement": "IC50", "setting": "CAL-54", "result": "> 5000", "unit": "nM"}, {"measurement": "IC50", "setting": "YKG-1", "result": 1980, "unit": "nM"}, {"measurement": "IC50", "setting": "SW1710", "result": 2310, "unit": "nM"}, {"measurement": "IC50", "setting": "SK-MES-1", "result": 3.73, "unit": "µM"}, {"measurement": "IC50", "setting": "SNU-449", "result": "> 5000", "unit": "nM"}, {"measurement": "IC50", "setting": "NCI-H1993", "result": "> 5000", "unit": "nM"}, {"measurement": "IC50", "setting": "D-423MG", "result": 4.81, "unit": "µM"}, {"measurement": "IC50", "setting": "HCC1806", "result": "> 5000", "unit": "nM"}, {"measurement": "IC50", "setting": "FTC-133", "result": "> 5000", "unit": "nM"}, {"measurement": "IC50", "setting": "SF-295", "result": "> 5000", "unit": "nM"}, {"measurement": "IC50", "setting": "AN3-CA", "result": "> 5000", "unit": "nM"}, {"measurement": "IC50", "setting": "HCT-116", "result": "> 5000", "unit": "nM"}]}
{"smiles": "CO[C@H]1C[C@@H]2CC[C@@H](C)[C@@](O)(O2)C(=O)C(=O)N2CCCC[C@H]2C(=O)O[C@H]([C@H](C)C[C@@H]2CC[C@@H](OC(=O)C(C)(CO)CO)[C@H](OC)C2)CC(=O)[C@H](C)/C=C(\\C)[C@@H](O)[C@@H](OC)C(=O)[C@H](C)C[C@H](C)/C=C/C=C/C=C/1C", "note": "[TEMSIROLIMUS]", "values": [{"measurement": "IC50", "setting": "ESS-1", "result": "> 200", "unit": "nM"}, {"measurement": "IC50", "setting": "UMC-11", "result": 89.4, "unit": "nM"}, {"measurement": "IC50", "setting": "SAOS-2", "result": "> 200", "unit": "nM"}, {"measurement": "IC50", "setting": "RVH-421", "result": 187, "unit": "nM"}, {"measurement": "IC50", "setting": "HT55", "result": "> 200", "unit": "nM"}, {"measurement": "IC50", "setting": "PFSK-1", "result": 27.7, "unit": "nM"}, {"measurement": "IC50", "setting": "HuO9", "result": 177, "unit": "nM"}, {"measurement": "IC50", "setting": "KP-N-YN", "result": "> 200", "unit": "nM"}, {"measurement": "IC50", "setting": "NCI-H2122", "result": "> 200", "unit": "nM"}, {"measurement": "IC50", "setting": "PA-1", "result": 1.47, "unit": "nM"}, {"measurement": "IC50", "setting": "HT-1376", "result": "> 0.2", "unit": "µM"}, {"measurement": "IC50", "setting": "BHT-101", "result": 197, "unit": "nM"}, {"measurement": "IC50", "setting": "SW1463", "result": "> 200", "unit": "nM"}, {"measurement": "IC50", "setting": "NB7", "result": 17.9, "unit": "nM"}, {"measurement": "IC50", "setting": "BFTC-905", "result": "> 200", "unit": "nM"}, {"measurement": "IC50", "setting": "CAL-51", "result": "> 0.2", "unit": "µM"}, {"measurement": "IC50", "setting": "KYSE-150 cell line", "result": "> 200", "unit": "nM"}, {"measurement": "IC50", "setting": "HOP-92", "result": "> 200", "unit": "nM"}, {"measurement": "IC50", "setting": "MG-63", "result": 134, "unit": "nM"}, {"measurement": "IC50", "setting": "H-EMC-SS", "result": "> 200", "unit": "nM"}, {"measurement": "IC50", "setting": "HCT-15", "result": "> 200", "unit": "nM"}, {"measurement": "IC50", "setting": "CP50-MEL-B", "result": "> 200", "unit": "nM"}, {"measurement": "IC50", "setting": "JEG-3", "result": "> 0.2", "unit": "µM"}, {"measurement": "IC50", "setting": "CAL-54", "result": 118, "unit": "nM"}, {"measurement": "IC50", "setting": "YKG-1", "result": "> 200", "unit": "nM"}, {"measurement": "IC50", "setting": "SW1710", "result": 189, "unit": "nM"}, {"measurement": "IC50", "setting": "SK-MES-1", "result": "> 0.2", "unit": "µM"}, {"measurement": "IC50", "setting": "SNU-449", "result": "> 200", "unit": "nM"}, {"measurement": "IC50", "setting": "NCI-H1993", "result": "> 200", "unit": "nM"}, {"measurement": "IC50", "setting": "D-423MG", "result": "> 0.2", "unit": "µM"}, {"measurement": "IC50", "setting": "HCC1806", "result": "> 200", "unit": "nM"}, {"measurement": "IC50", "setting": "FTC-133", "result": 50.6, "unit": "nM"}, {"measurement": "IC50", "setting": "SF-295", "result": 60.5, "unit": "nM"}, {"measurement": "IC50", "setting": "AN3-CA", "result": 56.9, "unit": "nM"}, {"measurement": "IC50", "setting": "HCT-116", "result": "> 200", "unit": "nM"}]}
